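Five concentrations, 48 hours, 96-well plates. GI50 is the concentration that inhibits growth by half. TGI: total growth inhibition.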
Legend:
Test in all cases: DTP human tumour cell line panel, 48 h
U251 CNS = system: U251 CNS
M14 melanoma = system: M14 melanoma
MALME-3M melanoma = system: MALME-3M melanoma
SF-295 CNS = system: SF-295 CNS
EKVX NSCLC = system: EKVX NSCLC
A549 NSCLC = system: A549 NSCLC
SN12C renal = system: SN12C renal
K-562 leukemia = system: K-562 leukemia
SNB-19 CNS = system: SNB-19 CNS
HT29 colon = system: HT29 colon

Row | Structure (SMILES) | TGI (U251 CNS) [µM] | TGI (M14 melanoma) [µM] | TGI (MALME-3M melanoma) [µM] | TGI (SF-295 CNS) [µM] | TGI (EKVX NSCLC) [µM] | TGI (A549 NSCLC) [µM] | TGI (SN12C renal) [µM] | TGI (K-562 leukemia) [µM] | TGI (SNB-19 CNS) [µM] | TGI (HT29 colon) [µM] | GI50 (SF-295 CNS) [µM] | GI50 (EKVX NSCLC) [µM] | GI50 (SN12C renal) [µM] | GI50 (SNB-19 CNS) [µM]
1 | CC(/C=C/c1ccc([N+](=O)[O-])o1)=N/N1CC(CN2CCOCC2)OC1=O (stereo unspecified) | > 100 | 40.3 | 41.3 | > 100 | > 100 | 98.5 | > 100 | 61.1 | > 100 | > 100 |  |  |  | 
2 | c1ccc2c(c1)nc1n2CSC1 | > 100 | > 100 | > 100 | > 100 | > 100 |  | > 100 | > 100 | > 100 | > 100 |  |  |  | 
3 | CC(=O)[O-].CC(=O)[O-].[NH2-].[Pt+2].c1ccncc1 | > 100 | > 100 | > 100 | > 100 |  | > 100 | > 100 | 71.6 | > 100 | > 100 |  |  |  | 
4 | CN1CCN(Cc2ccc(NC(=O)c3ccc(C#N)c(C#Cc4cnc(N)c5ncccc45)c3)cc2C(F)(F)F)CC1 |  |  |  | 78.3 | 89.7 |  | 5.43 |  | > 100 |  | 22.1 | 19.3 | 2.19 | 3.87
5 | CCOP(=O)(OCC)C(Cc1ccc(OC)c(OC)c1)N=C(c1ccccc1)c1ccccc1 (stereo unspecified) | > 100 | > 100 |  | > 100 |  | > 100 | > 100 | 22.4 | > 100 | > 100 |  |  |  | 
6 | O=C1CN2C(Cl)(Cl)C2(c2ccccc2)c2cc(Cl)ccc2N1CC(F)(F)F (stereo unspecified) | 37.8 | 77.5 | 87 | > 100 | > 100 |  | 30.6 | 72.1 |  | 48.1 |  |  |  | 
7 | [C-]#[O+].[Cl][Sn]([Cl])[Cl].[Cl][Sn]([Cl])[Cl].[Pt].c1ccncc1 | > 100 |  | > 100 | > 100 | > 100 | > 100 | > 100 | > 100 | > 100 | > 100 |  |  |  | 
8 | Cc1cc2c(cc1C)[n+](=O)c(C(=O)N1CCN(c3ccc([N+](=O)[O-])cc3)CC1)c(C)n2[O-] | 41.3 | > 100 | > 100 | 31.6 | 87.4 | > 100 | > 100 | > 100 | > 100 | > 100 |  |  |  | 
9 | CC1=C[C@]2(CC(C)C3C(CC4(C)C5CCC6C(C)(C)C(=O)CC[C@@]67C[C@@]57CC[C@]34C)O2)OC1=O (stereo partly specified) | > 100 | > 100 | > 100 | 89.5 | > 100 | > 100 | > 100 | > 100 | 83.7 | > 100 |  |  |  | 
10 | O=C(Nc1ccc(Cl)cc1)/C(Cc1cccc[n+]1[O-])=N\Nc1ccc([N+](=O)[O-])cc1[N+](=O)[O-] | > 100 | > 100 | > 100 | > 100 | > 100 | > 100 | > 100 | > 100 | > 100 |  |  |  |  | 
11 | COc1cc(C(N)=O)cc(NC(=O)/C=C/c2ccccc2)c1OC | > 100 | > 100 | > 100 | > 100 | > 100 | > 100 | > 100 | > 100 | > 100 | > 100 |  |  |  | 
12 | Cc1ccc(S(=O)(=O)Oc2cc(S(=O)(=O)O)cc3cc(S(=O)(=O)O)cc(N)c23)cc1 | > 100 | > 100 | > 100 | > 100 | > 100 | > 100 | > 100 | > 100 | > 100 | > 100 |  |  |  | 
13 | CC1(C)CCc2cc3c(-c4ccccc4)cc(=O)oc3cc2O1 | > 100 | > 100 | > 100 | > 100 | > 100 |  | > 100 | > 100 | > 100 | > 100 |  |  |  | 
14 | Cc1cccc2c(N)c3cccc(C(=O)NCCN(C)C)c3nc12 | 0.604 | 0.422 | 0.606 | 0.615 | 0.469 | 3.5 | 0.457 | 0.543 |  |  |  |  |  | 
15 | O=C1Nc2ccccc2Nc2nc3cccccc-3c21 | > 100 | > 100 | > 100 | > 100 | > 100 | > 100 | > 100 | > 100 | > 100 | > 100 |  |  |  | 
16 | CO/N=C1/c2sccc2[C@H](NC(=O)C(F)(F)F)[C@@H]1O | > 100 | > 100 | > 100 | > 100 | > 100 | > 100 | > 100 | > 100 |  | > 100 |  |  |  | 

Reference: PubChem BioAssay (NCI)
